Source: article PMC11767451, “Novel Approaches to Monitor Pharmacokinetics and Metabolism of Gemcitabine-Ibandronate Conjugate in Mice and Dogs” (Molecules, 2025)
Like-named read-outs stand apart in the source and are kept apart here.

Columns and labels:
[1] = Stability in dog plasma (accelerated, freeze-thaw, frozen PK samples); type: in vitro ADME; conditions: for %-ACC, frozen PK sample stability: dog plasma PK samples re-extracted after 1.5 years at <−70 °C; for %-ACC (% accuracy vs nominal): 3 freeze-thaw cycles (<−70 °C / bench)
Description: For stability testing, QC samples were prepared by spiking plasma with QC stock solutions. These stability samples were stored for the predetermined time periods before extraction (accelerated stability and freeze–thaw stability) or after extraction (autosampler stability) and were run with freshly prepared calibrator standards. For accelerated stability, samples were stored at 4 °C and at room temperature for 4 h and 24 h prior to sample extraction. […] Assay A compounds (GEM-IB and IB) were also tested at 1 h and 2 h exposed to 4 °C and at room temperature to evaluate for which duration GEM-IB is stable.
Freeze–thaw cycle stability was assessed by storing the stability samples overnight in the freezer (<−70 °C) and thawing them the next day on the bench. Once thawed, samples were placed back into the freezer. This was carried out for three freeze–thaw cycles for all compounds.
To assess the stability of study samples, PK samples were re-extracted after storage at <−70 °C for 1.5 years (see Supplementary Table S4).
Method development and validation was conducted following applicable FDA guidelines for bioanalytical assays, as considered fit for purpose. Specificity. Endogenous interferences were excluded by analysis of blank plasma from 6 different individual lots of plasma. The lower limit of quantification (LLOQ) was determined as the lowest concentration consistently achieving an accuracy better than ±20% of the nominal concentration, with imprecision ≤20%. Predefined acceptance criteria. The performance of the assay was considered acceptable if intra- and inter-day imprecision (coefficient of variance, %CV) at each concentration was ≤15%, except at the LLOQ (≤20%). Intra- and inter-day accuracy had to be ±15% of the nominal value, except at the LLOQ (±20%). Calibration curves had to have a correlation coefficient (r) of 0.99 or better. Analytical recovery and imprecision. Intra- and inter-day analytical accuracy and imprecision were tested at least at four concentration levels depending on the LLOQ for each compound. Intra-day imprecision and accuracy were determined with n = 6 per QC level. Inter-day imprecision and accuracy were measured over 3 days, with six replicates for each QC concentration (n = 18). Extraction efficiency and matrix effect. Extraction efficiency for GEM-IB and metabolites was established by comparing the signals of the analytes after the extraction of QCs (n = 6/concentrations), with the signals of the extracted blank matrix spiked with the respective concentrations of analytes after the extraction procedure. The matrix effect was determined by comparing the analyte LC-MS/MS signal after spiking of the analyte into the extracted blank matrix (matrix from 6 different individual lots, analyte concentrations as for the QC samples) with the HPLC-MS/MS signal of the same amount of analyte in neat solution [25]. Carry-over. Carry-over was assessed by injecting blank buffer samples after analysis of the highest calibrators. Carry-over was considered insignificant if there was no signal at the relevant retention times exceeding 20% of the analyte signals at the LLOQ. Stability. QC samples were freshly prepared. One set was extracted and was analyzed immediately to determine baseline signals.

[2] = Proof-of-concept mouse PK study, plasma levels of GEM-IB and metabolites by HPLC-MS/MS; type: in vivo, mice; conditions: for Cmax: analyte = parent or metabolite; for AUC: over the observation period
Description: Assay A (GEM-IB and IB): The extraction of calibration standards, quality control samples, and PK study samples was identical. Plasma, quality control stocks, and calibrator stocks were removed from the storage freezer and kept at room temperature until fully thawed. Aliquots of 100 μL of standards/quality control or blank sample were transferred into a 1.5 mL low-binding polypropylene vial with a conical bottom and snap-on lid. An amount of 10 µL of the of the internal standard solution (15 and 10 µg/mL of IB-D3 and ATP-IS, respectively) was added and mixed. For protein precipitation, 50 μL of methanol was added and then samples were vortexed for 10 min. This was followed by centrifugation at 25,000× g for ten minutes at 4 °C (Thermo Scientific MR 23i Centrifuge, Thermo Scientific, Waltham, MA, USA). To remove remaining protein, the supernatant was transferred to 10,000 molecular weight cut off (MWCO) centrifugal filters (800 µL volume, PES 10,000 with 2.0 mL receiver tubes, Analytical Sales and Services, Flanders, NJ, USA) and centrifuged again at 25,000× g for ten minutes at 4 °C. The filtrate was transferred into HPLC vials and placed into the HPLC autosampler maintained at 4 °C.
Assay B (GEMMP, GEM dFdUMP and dFdU): The extraction of calibration standards and quality control samples was identical to that of study samples. An amount of 200 µL of plasma sample was added to a 1.5 mL snap-top Eppendorf tube with 100 µL of protein precipitation solution. The samples were then vortexed for five minutes followed by centrifugation at 25,000× g for ten minutes at 4 °C. Hereafter, supernatants were transferred to 10K Amicon centrifugal filters (Merck-Millipore, Burlington, MA, USA) and centrifuged at the same settings for 60 min. The filtrates were then transferred into HPLC vials for analysis.
Assay A (GEM-IB and IB): Quantification of the analytes was carried out using high-performance liquid chromatography–tandem mass spectrometry (HPLC-MS/MS). Chromatography was performed using an Agilent 1260 Infinity II bio-inert HPLC system (Agilent Technologies, Santa Clara, CA, USA) on a Hypercarb Porous Graphitic Carbon HPLC column (3 µm, 2.1 × 50 mm, Thermo Scientific, Waltham, MA, USA). The HPLC system consisted of an Agilent 1260 Infinity II bio-inert quaternary pump, an Agilent 1260 Infinity II bio-inert column oven, and an Agilent 1260 Infinity II bio-inert autosampler (Agilent Technologies, Santa Clara, CA, USA). An amount of 10 µL of the sample extracts was injected. The column was maintained at 22 °C. HPLC-MS-grade water supplemented with 10 mM hexafluoroisopropanol (HFIP) and 0.05% (v/v) diethyl amine (DEA) at pH 9.4 was used for the aqueous mobile phase (Buffer A) and HPLC-grade acetonitrile was used for the organic mobile phase (Buffer B). The flow rate was set to 400 µL/min throughout the assay. The initial settings were 98% Buffer A and 2% organic Buffer B for the first two minutes. During the following 0.7 min, the organic Buffer B was increased to 30%. At minute 3.5, the gradient reached 98% Buffer B, which was kept for 0.5 min, and at minute 4.2 the column was re-equilibrated to starting conditions for 2.8 min until the next injection. The HPLC system was connected to a Sciex a 5500+ triple quadrupole mass spectrometer (SCIEX, Concord, ON, Canada) via a turbo electrospray ionization source (SCIEX) operated in the negative electrospray ionization (ESI) mode. Data were acquired in negative multiple reaction monitoring (MRM) mode and all compounds were detected as [M–H ]^−. The ion transitions used during the multiple reaction monitoring mode were m/z = 318→236, 321→239, 643→342, and 521→79 for IB, IB-D3, GEM-IB, and adenosine-^13C10,^15N5 5′-triphosphate (^13C10-^15N5-ATP), respectively. The dwell time for analysis was set to 50 ms. The curtain gas was kept at 20 psi and the ion source gas at 55 psi. The ion spray voltage was −4500 volts, and the temperature of the ion source was set to 400 °C. […]

[3] = dog plasma, 2 hours 4°C (IB and GEM-IB, footnote)
[4] = dog plasma, 2 hours RT (IB and GEM-IB, footnote)
[5] = ip, after GEM-IB 5 mg/kg i.p., read-out: Tmax
[6] = mouse, plasma, ip, 5 mg/kg, after GEM-IB 5 mg/kg i.p., read-out: AUC
[7] = mouse, plasma, ip, 5 mg/kg, after GEM-IB 5 mg/kg i.p., read-out: T1/2 (converted)
[8] = mouse, plasma, ip, 5 mg/kg, after i.p. injection of GEM-IB 5 mg/kg, read-out: half-life

Compound | %-ACC, frozen PK sample stability [1] | %-ACC (% accuracy vs nominal) ([1]; dog plasma) [%] | %-ACC (percent mean accuracy vs nominal) ([1]; dog plasma, 4 hours 4°C) [%] | %-ACC (percent mean accuracy vs nominal) ([1]; dog plasma, 4 hours RT) [%] | %-ACC (percent mean accuracy vs nominal) ([1]; dog plasma, 24 hours 4°C) [%] | %-ACC (percent mean accuracy vs nominal) ([1]; dog plasma, 24 hours RT) [%] | Rate Constant ([2]; after GEM-IB 5 mg/kg i.p.) [h⁻¹] | Cmax ([2]; ip, after GEM-IB 5 mg/kg i.p.) [ng/mL] | %-ACC (percent mean accuracy vs nominal) [1, 3] [%] | %-ACC (percent mean accuracy vs nominal) [1, 4] [%] | Tmax [2, 5] [min] | AUC [2, 6] [ng·h/mL] | half-life [2, 7] [min] | half-life [2, 8] [min] | further results
Nc1ccn([C@@H]2O[C@H](CO)[C@@H](O)C2(F)F)c(=O)n1 [GEM, gemcitabine] | 90.4% ± 23.9 | 103.4 | 102.7 | 101.7 | 94.8 | 95.4 | 1.5 | 2120 |  |  |  |  |  |  | T1/2 ([2]; after GEM-IB 5 mg/kg i.p.): 26.9 min; Tmax ([2]; after GEM-IB 5 mg/kg i.p.): 4.98 min
CCCCCN(C)CCC(O)(P(=O)(O)O)P(=O)(O)OP(=O)(O)OC[C@H]1O[C@@H](n2ccc(N)nc2=O)C(F)(F)[C@@H]1O (stereo partly drawn) [GEM-IB] |  | 84.7 |  |  | 83.6 | 13.7 | 5.0 | 4180 | 99.3 | 83.5 | 4.98 | 1280 | 8.28 | 8 | time stable on ice ([1]; dog plasma, on ice): up to 24 h; CL ([2]; after GEM-IB 5 mg/kg i.p.): 65.65 mL/min/kg; Vdss ([2]; after GEM-IB 5 mg/kg i.p.): 0.469 L/kg
Nc1ccn([C@@H]2O[C@H](COP(=O)(O)O)[C@@H](O)C2(F)F)c(=O)n1 [GEMMP, gemcitabine-5′-phosphate] | failed the criteria | 92.4 | 89.5 | 98.2 | 88.1 | 98.2 | 4.0 | 1310 |  |  | 4.98 | 405 | 10.3 |  | 

The next lines start with results.

%-ACC, frozen PK sample stability [1] | %-ACC (% accuracy vs nominal) ([1]; dog plasma) [%] | %-ACC (percent mean accuracy vs nominal) ([1]; dog plasma, 4 hours 4°C) [%] | %-ACC (percent mean accuracy vs nominal) ([1]; dog plasma, 4 hours RT) [%] | %-ACC (percent mean accuracy vs nominal) ([1]; dog plasma, 24 hours 4°C) [%] | %-ACC (percent mean accuracy vs nominal) ([1]; dog plasma, 24 hours RT) [%] | Rate Constant ([2]; after GEM-IB 5 mg/kg i.p.) [h⁻¹] | Cmax ([2]; ip, after GEM-IB 5 mg/kg i.p.) [ng/mL] | %-ACC (percent mean accuracy vs nominal) [1, 3] [%] | %-ACC (percent mean accuracy vs nominal) [1, 4] [%] | Tmax [2, 5] [min] | AUC [2, 6] [ng·h/mL] | half-life [2, 7] [min] | half-life [2, 8] [min] | Compound | further results
 | 106.5 |  |  | 108.8 | 118.5 | 2.6 | 22800 | 99.3 | 101.0 | 4.98 | 10700 | 16.1 | 16 | CCCCCN(C)CCC(O)(P(=O)(O)O)P(=O)(O)O [IB, ibandronate] | accelerated stability, result in words ([1]; dog plasma, up to 24 h at 4 °C / on ice and room temperature): stable
failed the criteria | 109.5 | 100.5 | 101.3 | 105.3 | 98.4 | 0.4 | 832 |  |  | 60 |  | 108 |  | O=c1ccn([C@@H]2O[C@H](CO)[C@@H](O)C2(F)F)c(=O)[nH]1 [dFdU, 2′,2′-difluoro-2′-deoxyuridine] | 
failed the criteria | 87.7 | 84.2 | 86.7 | 85.2 | 80.5 | 11.1 | 130 |  |  | 4.98 |  | 3.78 |  | O=c1ccn([C@@H]2O[C@H](COP(=O)(O)O)[C@@H](O)C2(F)F)c(=O)[nH]1 [dFdUMP, 2′,2′-difluoro-2′-deoxyuridine-5′-phosphate] | AUC ([2]; after GEM-IB 5 mg/kg i.p.): 38 ng·h/mL; AUC ([2]; after GEM-IB 5 mg/kg i.p., listed as dFdU-MP): 3389 ng·h/mL
